This is an account of results in US20110098296A1, “Thiazole And Oxazole Kinase Inhibitors” (priority 2007, published 2011).

Counter-ions that a name gives are not always drawn.

The target in experiment [1] is T1, EGFR (Homo sapiens, UniProt P00533).
T1 construct: made in house; host or cells: baculovirus expression system
Briefly: EGFR substrate phosphorylation assay (HTRF). Format: biochemical. The following applies: Method (A): Enzyme Mix incubated with compound at 20° C. for 1 hr, reaction started by adding Substrate Mix. Here is the method: (§1) Compounds of the present invention were tested for EGFR and ErbB-2 protein tyrosine kinase inhibitory activity in substrate phosphorylation assays using enzymes purified from a baculovirus expression system. Reagent production was conducted essentially as described in Brignola, P. S., et al., (2002) J. Biol. Chem. 277(2):1576-1585.
(§2) The method measures the ability of the isolated enzyme to catalyse the transfer of the gamma-phosphate from ATP onto the tyrosine residue of a biotinylated synthetic peptide referenced “Peptide C” in Brignola, P. S., et al., (2002) J. Biol. Chem. 277(2):1576-1585. The extent of tyrosine phosphorylation was measured using an anti-phosphotyrosine antibody, and quantified by homogenous time-resolved fluorescence (HTRF).
(§3) Reactions were performed in black 384-well polystyrene flat-bottom plates in a final volume of 20 μl. Assays were performed by adding 10 μl of each of the following solutions, Substrate Mix and Enzyme Mix: The Substrate Mix contained 100 mM 3-[N-morpholino]propanesulfonic acid (MOPS) (pH 7.5), 2 mM MnCl2, 20 μM ATP, 0.01% Tween-20, 0.1 mg/mL (BSA), 0.8 uM peptide substrate, and 1 mM dithiothreitol. The Enzyme Mix contained 100 mM MOPS (pH 7.5); 0.01% Tween-20; 0.1 mg/mL BSA, and either 0.8 nM EGFR, 10 nM ErbB2, or 1 nM ErbB4
(§4) During the course of these studies, two separate methods have been used to measure the potency of compounds. In Method A (indicated as “(A)” in the tables below), the Enzyme Mix was added to the compound plates and the plates were incubated at 20° C. for 1 hr. The reactions were then started by adding the Substrate Mix. In Method B (indicated as “(B)” in the tables below), the Substrate Mix was added to the compound plates first, then the reaction was started by adding the Enzyme Mix.
(§5) After initiating the reaction with either method describe above, the reactions were allowed to proceed for 90 minutes at 20° C. The reactions were then terminated by the addition of 20 μL 100 mM EDTA to each well. 40 μL/well of HTRF detection mix were added to the assay plates. The final concentrations of the detection reagents were: 100 mM HEPES (pH7.5), 0.1 mg/mL BSA, 15 nM streptavidin-labeled allophycocyanin (PerkinElmer), and 1 nM europium-labeled anti-phosphotyrosine antibody (PerkinElmer). Assay plates were left unsealed and were counted in a Wallac Multilabel Counter 1420 (PerkinElmer).
(§6) Compounds under analysis were dissolved in dimethylsulfoxide (DMSO) to 1.0 mM and serially diluted 1 to 3 with DMSO through twelve dilutions. 1 μL of each concentration was transferred to the corresponding well of an assay plate. This creates a final compound concentration range from 0.00027 to 47.6 μM.
(§7) The data for dose responses were plotted as % Inhibition calculated with the data reduction formula 100*(1−(U1−C2)/(C1−C2)) versus concentration of compound where U1 is the unknown value, C1 is the average control value obtained for 4.76% DMSO, and C2 is the average control value obtained for 0.035 M EDTA. Data were fitted with a curve described by:
(§8) where Vmax is the upper asymptote, Y2 is the Y intercept, and K is the IC50. The results for each compound were recorded as pIC50s, calculated as follows: […]

The target in experiment [2] is T2, ErbB2 (Homo sapiens, UniProt P04626).
T2 construct: made in house; host or cells: baculovirus expression system
T2 sequence (P04626 23-1255): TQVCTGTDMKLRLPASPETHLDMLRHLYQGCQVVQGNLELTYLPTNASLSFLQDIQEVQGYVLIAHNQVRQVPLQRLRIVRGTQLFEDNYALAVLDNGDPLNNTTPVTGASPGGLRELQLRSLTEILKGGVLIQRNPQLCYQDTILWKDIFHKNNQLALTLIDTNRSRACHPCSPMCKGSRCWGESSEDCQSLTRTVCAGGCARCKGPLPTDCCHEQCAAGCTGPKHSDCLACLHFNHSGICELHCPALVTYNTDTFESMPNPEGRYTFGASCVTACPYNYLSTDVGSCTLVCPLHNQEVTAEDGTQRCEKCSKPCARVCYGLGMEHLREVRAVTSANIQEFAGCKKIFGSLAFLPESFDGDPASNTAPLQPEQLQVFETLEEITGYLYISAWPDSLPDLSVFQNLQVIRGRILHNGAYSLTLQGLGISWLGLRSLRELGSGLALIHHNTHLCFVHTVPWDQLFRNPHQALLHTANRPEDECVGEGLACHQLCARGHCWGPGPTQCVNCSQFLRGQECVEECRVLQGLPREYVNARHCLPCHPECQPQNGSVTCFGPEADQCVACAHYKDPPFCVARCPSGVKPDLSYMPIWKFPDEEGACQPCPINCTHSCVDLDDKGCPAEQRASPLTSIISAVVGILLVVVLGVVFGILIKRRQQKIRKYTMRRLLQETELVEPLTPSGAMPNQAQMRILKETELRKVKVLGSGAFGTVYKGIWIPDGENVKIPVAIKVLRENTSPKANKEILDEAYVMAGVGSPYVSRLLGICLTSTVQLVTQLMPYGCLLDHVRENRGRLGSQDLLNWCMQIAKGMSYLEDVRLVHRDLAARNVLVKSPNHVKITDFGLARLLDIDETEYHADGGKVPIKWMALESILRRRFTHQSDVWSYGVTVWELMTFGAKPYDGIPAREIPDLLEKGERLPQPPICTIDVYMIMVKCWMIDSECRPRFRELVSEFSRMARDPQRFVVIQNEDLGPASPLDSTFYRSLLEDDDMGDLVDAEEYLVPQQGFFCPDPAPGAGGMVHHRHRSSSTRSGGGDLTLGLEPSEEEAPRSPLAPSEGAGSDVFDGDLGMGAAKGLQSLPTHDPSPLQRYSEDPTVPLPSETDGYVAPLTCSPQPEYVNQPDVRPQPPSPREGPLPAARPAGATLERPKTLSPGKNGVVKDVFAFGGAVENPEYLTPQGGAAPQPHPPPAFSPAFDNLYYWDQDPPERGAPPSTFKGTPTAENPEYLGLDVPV
Kind of experiment: ErbB-2 substrate phosphorylation assay (HTRF). Format: biochemical. The settings on record: Method (A): Enzyme Mix incubated with compound at 20° C. for 1 hr, reaction started by adding Substrate Mix. Here is the method: as §1, §2, §3, §4, §5, §6, §7, §8

Experiment [3] concerns HN5 tumor cells. Briefly: Method C: Cell Growth Inhibition Assay (CellTiter-Glo), HN5. The format is cell-based. The following applies: Homo sapiens, 72 h, 3 days, 4-parameter fit. As for the experimental part:
(§9) Human breast tumor cells (BT474) were cultured in RPMI (Mediatech 50-011-PB), containing 10% FBS (JRH Biosciences 12176) and 1% penicillin-streptomycin (Invitrogen 15140). Human head and neck tumor cells (HN5) were cultured in high glucose DMEM (Mediatech 50-013-PB) containing 10% FBS and 1% penicillin-streptomycin. Human colon tumor cells (Colo205) were cultured in RPMI (Mediatech 50-020-PB) containing 10% FBS and 1% penicillin-streptomycin. Human melanoma cancer cells (SK-MEL-28) were cultured in EMEM with nonessential amino acids (Mediatech 50-011-PB) containing 10% FBS, 1% sodium pyruvate (JT Baker 3354-04), and 1% penicillin-streptomycin. Human melanoma cancer cells (A375P F11s) were cultured in RPMI (Mediatech 50-020-PB) containing 10% FBS, 1% sodium pyruvate, and 1% penicillin-streptomycin. Human colon cancer cells (HT-29) were cultured in high glucose DMEM (Mediatech 50-013-PB) containing 10% FBS and 1% penicillin-streptomycin. Human melanoma cancer cells (SK-MEL-3) were cultured in McCoy's 5A (50-025-PB) containing 15% FBS, and 1% penicillin-streptomycin. All cell lines were maintained at 37° C. in a humidified 5% CO2, 95% air incubator. Cells were harvested using trypsin/EDTA (Invitrogen 25200), counted using an haemocytometer, and plated. For 96-well assays (using white full-area NUNC plates cat. #136102), cells were plated in 105 μL at the following densities (cells/well): HN5, 500; Colo205, 500; SK-MEL-28, 500; A375P-F11s, 500; HT-29, 500; SK-MEL-3, 500; and BT474, 3000. For 384-well assays (white full-area NUNC plates, cat. #781080), cells were plated in 48 μL at the following densities (cells/well): HN5, 500; Colo205, 500; SK-MEL-28, 500; A375P-F11s, 500; HT29, 500; SK-MEL-3, 500; and BT474, 2000.
(§10) The next day, compounds were diluted as follow: For 96-well assays, 13.5 μL of compound in DMSO were diluted using nine (9) serial 1:3 dilutions of 4.5 μL in 9 μL of DMSO. Medium (270 μl/well of RPMI with 10% FBS and 1% penicillin-streptomycin) was added to the plates. Aliquots (7 μl) were added to cells in the final assay giving a final DMSO concentration of 0.2%. For 384-well assays, 15 μL of compound in DMSO were diluted using nine (9) serial 1:3 dilutions of 5 μL in 10 μL of DMSO, followed by a further dilution of 5 μL of compound with 95 μL of medium, of which 2 μL were added to cells in the final assay giving a final DMSO concentration of 0.2%. Cells were incubated at 37° C., 5% CO2 for 3 days.
(§11) Total ATP was measured (as a surrogate estimate of cell number) using CellTiter-Glo® reagent (Promega G7571). Briefly, plates were removed from the incubator and allowed to equilibrate to room temperature for 30 minutes. CellTiter-Glo® (25 μL or 55 μL for 384-well or 96-well assays, respectively) reagent was added to each well and plates were shaken on an orbital plate shaker for 2 mins. Plates were incubated without shaking for a further 30 mins and read on an LJL Analyst GT reader in luminometer mode with an integration time of 0.5 seconds per well. Percent inhibition of cell growth was calculated relative to DMSO vehicle-treated control wells. Concentration of compound required to give 50% inhibition of vehicle-treated control cell growth (IC50) was interpolated using a 4-parameter fit for determining IC50 using the following equation: Y=A+((B−A)/(1+((C/X)̂D))) where X=IC50.

Experiment [4] concerns BT474 tumor cells. Kind of experiment: Method C: Cell Growth Inhibition Assay (CellTiter-Glo), BT474. Format: cell-based. The settings on record: Homo sapiens, BT-474, 72 h, 3 days, 4-parameter fit. Here is the method:
as §9, §10, §11

In experiment [5] the test system is Colo205 tumor cells. Kind of experiment: Method C: Cell Growth Inhibition Assay (CellTiter-Glo), Colo205. Format: cell-based. The settings on record: Homo sapiens, COLO 205, 72 h, 3 days, 4-parameter fit. As for the experimental part: as §9, §10, §11
Experiment [6] relates to SK-MEL-28 tumor cells. Kind of experiment: Method C: Cell Growth Inhibition Assay (CellTiter-Glo), SK-MEL-28. The format is cell-based. The following applies: Homo sapiens, SK-MEL-28, 72 h, 3 days, 4-parameter fit. Here is the method:
as §9, §10, §11

T1 sequence (P00533 25-1210): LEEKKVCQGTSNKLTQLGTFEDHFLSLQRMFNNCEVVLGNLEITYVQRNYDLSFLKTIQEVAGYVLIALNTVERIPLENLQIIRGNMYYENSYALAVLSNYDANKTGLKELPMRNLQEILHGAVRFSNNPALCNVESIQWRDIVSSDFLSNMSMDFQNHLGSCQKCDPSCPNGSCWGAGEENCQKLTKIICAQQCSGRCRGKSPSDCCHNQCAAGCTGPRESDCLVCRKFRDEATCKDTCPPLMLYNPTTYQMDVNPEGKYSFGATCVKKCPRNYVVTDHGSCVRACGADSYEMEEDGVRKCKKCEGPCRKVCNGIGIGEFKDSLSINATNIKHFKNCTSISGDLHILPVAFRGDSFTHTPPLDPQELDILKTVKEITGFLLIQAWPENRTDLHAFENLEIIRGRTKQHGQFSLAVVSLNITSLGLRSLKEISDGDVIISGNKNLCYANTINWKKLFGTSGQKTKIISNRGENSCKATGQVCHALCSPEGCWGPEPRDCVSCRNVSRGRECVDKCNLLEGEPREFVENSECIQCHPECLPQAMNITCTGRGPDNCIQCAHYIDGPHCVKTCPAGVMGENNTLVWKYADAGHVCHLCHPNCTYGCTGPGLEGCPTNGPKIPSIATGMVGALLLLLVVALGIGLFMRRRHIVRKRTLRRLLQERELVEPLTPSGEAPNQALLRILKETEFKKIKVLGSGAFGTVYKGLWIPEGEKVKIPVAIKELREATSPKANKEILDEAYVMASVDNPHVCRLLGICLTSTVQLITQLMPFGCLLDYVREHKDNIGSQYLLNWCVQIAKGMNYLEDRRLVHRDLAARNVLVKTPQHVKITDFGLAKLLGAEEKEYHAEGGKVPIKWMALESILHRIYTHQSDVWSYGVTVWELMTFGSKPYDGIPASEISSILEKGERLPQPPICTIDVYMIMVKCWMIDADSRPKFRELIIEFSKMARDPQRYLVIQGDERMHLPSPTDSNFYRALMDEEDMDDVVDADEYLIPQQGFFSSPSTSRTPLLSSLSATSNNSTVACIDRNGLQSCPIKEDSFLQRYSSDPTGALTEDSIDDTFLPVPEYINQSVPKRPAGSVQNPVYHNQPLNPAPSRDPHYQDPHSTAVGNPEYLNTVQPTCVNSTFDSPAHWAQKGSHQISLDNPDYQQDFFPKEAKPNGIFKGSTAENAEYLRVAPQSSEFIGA

In the case of `CN(C)CCOc1ccc(Nc2nccc(-c3sc(-c4ccc(O)cc4)nc3-c3cccc(NC(=O)c4c(F)cccc4F)c3)n2)cc1Cl` [Example 139, N-{3-[5-{2-[(3-Chloro-4-{[2-(dimethylamino)ethyl]oxy}phenyl)amino]-4-pyrimidinyl}-2-(4-hydroxyphenyl)-1,3-thiazol-4-yl]phenyl}-2,6-difluorobenzamide], the concentration for half-maximal inhibition (IC50) in experiment [1] is less than 100 nM; in experiment [2] it was less than 100 nM; in experiment [3], 100 to 1000 nM; in experiment [4], 100 to 1000 nM; in experiment [5], 100 to 1000 nM.

For the molecule `Cc1nc(-c2cccc(NC(=O)c3c(F)cccc3F)c2)c(-c2ccnc(Nc3cccc(OCCN(C)C)c3)n2)s1` [Example 102, N-[3-(5-{2-[(3-{[2-(Dimethylamino)ethyl]oxy}phenyl)amino]-4-pyrimidinyl}-2-methyl-1,3-thiazol-4-yl)phenyl]-2,6-difluorobenzamide], the half-maximal inhibitory concentration (IC50) in experiment [1] was less than 100 nM; in experiment [2], less than 100 nM; in experiment [3], 100 to 1000 nM; in experiment [4], 100 to 1000 nM; in experiment [5], greater than 1000 nM.

As to `CN(C)CCOc1cccc(Nc2nccc(-c3scnc3-c3cccc(NC(=O)c4cc(F)ccc4F)c3)n2)c1` [Example 96, N-[3-(5-{2-[(3-{[2-(Dimethylamino)ethyl]oxy}phenyl)amino]-4-pyrimidinyl}-1,3-thiazol-4-yl)phenyl]-2,5-difluorobenzamide], the half-inhibitory concentration (IC50) in experiment [1] was less than 100 nM; in experiment [2], less than 100 nM; in experiment [3], less than 100 nM; in experiment [4], 100 to 1000 nM; in experiment [5] it was greater than 1000 nM; in experiment [6] it was greater than 1000 nM.

As for `CN(C)CCOc1cccc(Nc2nccc(-c3sc(N)nc3-c3cccc(C(=O)Nc4c(F)cccc4F)c3)n2)c1` [Example 76, 3-(2-Amino-5-{2-[(3-{[2-(dimethylamino)ethyl]oxy}phenyl)amino]-4-pyrimidinyl}-1,3-thiazol-4-yl)-N-(2,6-difluorophenyl)benzamide], the IC50 in experiment [1] was less than 100 nM; in experiment [2], less than 100 nM; in experiment [3] it was 100 to 1000 nM; in experiment [4], less than 100 nM; in experiment [5] it was 100 to 1000 nM.

Consider `Cc1nc(-c2cccc(NC(=O)Nc3ccc(Cl)c(C(F)(F)F)c3)c2)c(-c2ccnc(Nc3ccc(OCCN(C)C)c(Cl)c3)n2)s1` [Example 133, N-[3-(5-{2-[(3-Chloro-4-{[2-(dimethylamino)ethyl]oxy}Phenyl)amino]-4-pyrimidinyl}-2-methyl-1,3-thiazol-4-yl)phenyl]-N′-[4-chloro-3-(trifluoromethyl)phenyl]urea], for which the 50% inhibitory concentration (IC50) in experiment [1] was 100 to 1000 nM; in experiment [2] it was 100 to 1000 nM; in experiment [4] it was greater than 1000 nM; in experiment [5], 100 to 1000 nM; in experiment [6], 100 to 1000 nM.

As to `NS(=O)(=O)CCc1cccc(Nc2nccc(-c3scnc3-c3cccc(NC(=O)c4cc(F)ccc4F)c3)n2)c1` [Example 100, N-(3-{5-[2-({3-[2-(Aminosulfonyl)ethyl]phenyl}amino)-4-pyrimidinyl]-1,3-thiazol-4-yl}phenyl)-2,5-difluorobenzamide trifluoroacetate], the IC50 in experiment [1] was less than 100 nM; in experiment [2] it was less than 100 nM; in experiment [3], less than 100 nM; in experiment [4] it was less than 100 nM; in experiment [5], 100 to 1000 nM.

On to `CC(C)(C)c1nc(-c2cccc(NC(=O)c3c(F)cccc3F)c2)c(-c2ccnc(Nc3cccc(CN4CCCC4)c3)n2)s1` [Example 123, N-{3-[2-(1,1-Dimethylethyl)-5-(2-{[3-(1-pyrrolidinylmethyl)phenyl]amino}-4-pyrimidinyl)-1,3-thiazol-4-yl]phenyl}-2,6-difluorobenzamide], for which the IC50 was less than 100 nM in experiment [1]; less than 100 nM in experiment [2]; 100 to 1000 nM in experiment [4]; greater than 1000 nM in experiment [5]; greater than 1000 nM in experiment [6].

Consider `Cc1nc(-c2cccc(NC(=O)Nc3ccc(Cl)c(C(F)(F)F)c3)c2)c(-c2ccnc(Nc3ccc4c(c3)CN(C)CC4)n2)s1` [Example 129], for which the IC50 is 100 to 1000 nM in experiment [1]; less than 100 nM in experiment [2]; greater than 1000 nM in experiment [4]; 100 to 1000 nM in experiment [5]; greater than 1000 nM in experiment [6].

With `CC(C)c1nc(-c2cccc(NC(=O)c3c(F)cccc3F)c2)c(-c2ccnc(Nc3cccc(OCCN(C)C)c3)n2)s1` [Example 122], the IC50 in experiment [1] is less than 100 nM; in experiment [2], less than 100 nM; in experiment [4], 100 to 1000 nM; in experiment [5], greater than 1000 nM; in experiment [6] it was greater than 1000 nM.
